Results reported in patent US11084783B2, “O-alkyl-benzylideneguanidine derivatives and therapeutic use for the treatment of disorders associated with an accumulation of misfolded proteins” (INFLECTIS BIOSCIENCE, priority 2014, dated 2021).

Test system: amyloid-beta 1-42 injured primary cortical rat neurons
Assay: In vitro Alzheimer disease model: amyloid-beta 1-42 injured primary cortical rat neurons
Format: cell-based
Conditions: Amyloid-beta 1-42 20 μM, 24 hours; total number of neurons (MAP-2)
Experimental: Rat cortical neurons were cultured as described by Singer et al., (1999 J. Neuroscience 19 pp2455-63) and Callizot et al., (2013 J.Neurosci. Res. 91 pp706-16). Pregnant females (Wistar; Janvier Labs) at 15 days of gestation were killed by cervical dislocation. Fetuses were collected and immediately placed in ice-cold L15 Leibovitz medium (Pan Biotech, Batch: 9310614) with a 2% penicillin (10,000 U/mI) and streptomycin (10 mg/ml) solution (PS; Pan Biotech, Batch: 1451013) and 1% bovine serum albumin (BSA; Pan Biotech, Batch: h140603). Cortex was treated for 20 min at 37° C. with a trypsin-EDTA (Pan Biotech, Batch: 5890314) solution at a final concentration of 0.05% trypsin and 0.02% EDTA. […] Viable cells were counted in a Neubauer cytometer, using the trypan blue exclusion test. […]
The Amyloid-beta1-42 preparation was done following the procedure described by Callizot et al., 2013. […] Amyloid-beta 1-42 preparation was added to a final concentration of 20 μM (including to ˜2 μM of toxic oligomers measured by WB) diluted in control medium in presence of drugs. […]
The immunolabeled cultures were automatically examined with ImageXpress (Molecular device USA) at ×20 magnification. For each condition, 30 automatically fields per well (representing ˜80% of the total surface of the well) from 3 wells were analyzed. […] All values were expressed as mean +/−SEM (s.e.mean) (n=3 wells per condition per culture).

Structure (SMILES): CCCONC(=N)N/N=C/c1ccccc1Cl [Compound 12, 2-(2-chlorobenzylidene)-N-propoxyhydrazinecarboximidamide]
- protection of amyloid-beta 1-42 injured primary cortical rat neurons (FIG. 4): dose dependent protection
